Laboratory results as given in ChEMBL document CHEMBL6103652, “Niacin Ester Derivative of Brefeldin A as a Potential Dual-Target Arf1/BMX Inhibitor for Bladder Cancer” (J Nat Prod, 2025).
Calls of active or inactive are those of the source. The rule behind the calls is not given here.

Columns and labels:
[1] = system: A549; assay: Antiproliferative activity against human A549 cells assessed as inhibition of cell proliferation measured after 72 hrs by MTT assay; format: functional, cell-based; details: A549, 72 h
[2] = system: T-24; assay: Inhibition of colony formation in human T24 cells at 0.50 uM measured after 10 days by crystal violet staining based analysis relative to control; format: functional; details: T-24, 240 h, time 10 day
[3] = system: T-24; assay: Induction in apoptosis in human T24 cells assessed as total apoptotic cells at 0.125 to 0.50 uM incubated for 48 hrs by Annexin V-FITC staining based flow cytometry analysis (reference value: 8 %); format: functional; details: dose 0.125-0.5 µM, at 0.125 to 0.5 µM
[4] = Cytotoxicity against human LO2 cells measured after 72 hrs by MTT assay; format: toxicity, cell-based, L02
[5] = Toxicity in ICR mouse assessed as body weight change at 100 mg/kg, ip administered once for 14 days; format: organism-based; details: in vivo, 336 h, time 14 day
[6] = Toxicity in male C57BL/6 mouse allografted with mouse MB49 cells assessed as tumor cell necrosis at 1 mg/kg,iv bid measured after 14 days by H and E staining based analysis; format: organism-based; details: in vivo, 336 h, time 14 day
[7] = target: T1, Cytoplasmic tyrosine-protein kinase BMX (Homo sapiens) (UniProt P51813); assay: Induction of thermal stabilization of BMX in human T24 cells at 48 to 68 degreeC at 0.13 to 0.50 uM incubated for 6 hrs by CETSA analysis; format: cell-based; details: dose 0.13-0.5 µM
T1 sequence (whole entry): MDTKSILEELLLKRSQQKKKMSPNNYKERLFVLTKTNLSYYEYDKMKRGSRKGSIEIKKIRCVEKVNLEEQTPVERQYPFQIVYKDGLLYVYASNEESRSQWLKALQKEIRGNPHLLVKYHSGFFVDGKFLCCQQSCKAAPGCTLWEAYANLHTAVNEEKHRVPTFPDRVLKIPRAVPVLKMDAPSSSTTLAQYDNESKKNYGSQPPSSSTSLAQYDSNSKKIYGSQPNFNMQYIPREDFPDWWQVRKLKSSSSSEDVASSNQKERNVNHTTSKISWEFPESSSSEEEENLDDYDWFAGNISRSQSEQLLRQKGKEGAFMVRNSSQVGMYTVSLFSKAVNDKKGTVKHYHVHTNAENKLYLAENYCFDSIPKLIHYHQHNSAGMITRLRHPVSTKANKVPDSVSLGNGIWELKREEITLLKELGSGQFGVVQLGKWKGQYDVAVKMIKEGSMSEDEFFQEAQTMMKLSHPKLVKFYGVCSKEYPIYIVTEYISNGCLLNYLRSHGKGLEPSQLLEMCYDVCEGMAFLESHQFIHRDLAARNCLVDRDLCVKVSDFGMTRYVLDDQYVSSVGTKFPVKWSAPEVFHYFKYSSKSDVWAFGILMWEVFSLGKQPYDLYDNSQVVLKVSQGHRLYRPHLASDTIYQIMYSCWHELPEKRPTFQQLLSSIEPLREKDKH

[8] = MRT(0 to t) in Sprague-Dawley rat at 5 mg/kg, iv measured upto 24 hrs; format: ADME, organism-based; details: in vivo
[9] = system: T-24; assay: Induction of cell cycle arrest in human T24 cells assessed as accumulation of cells at S phase at 0.50 uM incubated for 24 hrs by RNase A/Propidium Iodide staining based flow cytometry analysis (reference value: 31.27 %); format: functional; details: dose 0.5 µM
[10] = target: T1, Cytoplasmic tyrosine-protein kinase BMX (Homo sapiens); assay: Inhibition of BMX phosphorylation in human T24 cells incubated for 24 hrs by Western blotting analysis; format: cell-based; details: dose 0.13-0.5 µM
[11] = Half life in Sprague-Dawley rat at 5 mg/kg, iv measured upto 24 hrs; format: ADME, organism-based; details: in vivo
[12] = system: T-24; assay: Inhibition of cell migration in human T24 cells at 0.125 uM incubated for 24 hrs by scratch assay (reference value: 88 %); format: functional; details: T-24, 24 h
[13] = system: MB49; assay: Antitumor immunity against mouse MB49 cells implanted in male C57BL/6 mouse assessed as increase in infiltration of CD3+ cells at 1 mg/kg,iv bid measured after 14 days immunofluorescence based analysis; format: functional, organism-based; details: time 14.0 day
[14] = system: T-24; assay: Induction of cell cycle arrest in human T24 cells assessed as accumulation of cells at S phase at 0.13 uM incubated for 24 hrs by RNase A/Propidium Iodide staining based flow cytometry analysis (reference value: 31.27 %); format: functional

`C[C@H]1CCC/C=C/[C@@H]2C[C@H](O)C[C@H]2[C@H](OC(=O)c2cccnc2)/C=C/C(=O)O1` gave an IC50 [1] of 0.23 µM, an inhibition at 0.5 µM [2] of 100% and an Activity [3] of 31%. The IC50 at 72 h [4] was 0.79 µM, the Activity [5] was “Non-toxic” and the Activity [6] was “Non-toxic”. For the same compound, the Activity [7] was “Active”, the MRT last at 24 h [8] was 8.4 min and the Activity [9] was 19.52%. For the same compound, the inhibition [10] was “Dose-dependent-effect”, the half-life [11] was 21.6 min and the wound closure at 0.125 µM [12] was 44%. For the same compound, the Activity [13] was “Active” and the Activity [14] was 28.6%.
